For 15 compounds, TGI and GI50 results are on record in PubChem BioAssay (NCI).

Test systems include SF-295 CNS; IGROV1 ovarian; K-562 leukemia; HT29 colon; HL-60(TB) leukemia; UACC-62 melanoma; OVCAR-4 ovarian; RPMI-8226 leukemia; MDA-MB-435.
Test in all cases: growth of human tumour cells (NCI), 48 h

Molecules are shown by their SMILES.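 48-hour exposure; five concentrations; linearly interpolated endpoints. At the GI50, growth is halved. TGI is the concentration that stops growth completely.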 Where only a bound is given, the exact number is not on record here.

Regarding `COc1ccc2nc(-c3cccs3)cc(C(O)CN3CCSCC3)c2c1` (centres undefined), the TGI in the assay on SF-295 CNS was above 100 µM; in the assay on IGROV1 ovarian, above 100 µM; in the assay with K-562 leukemia it was 51.5 µM; with HT29 colon it was 74 µM; in the assay with HL-60(TB) leukemia it was 5.8 µM; with UACC-62 melanoma, 38.6 µM. Besides, the TGI with OVCAR-4 ovarian was above 100 µM; with RPMI-8226 leukemia it was 43 µM.
On to `CC1=C(Oc2ccccc2)C(CCC(=O)O)c2c(O)cc(Cl)c(O)c21` (centres undefined), for which the TGI in the assay on SF-295 CNS, with IGROV1 ovarian, with K-562 leukemia, in the assay on HL-60(TB) leukemia, in the assay with OVCAR-4 ovarian and with RPMI-8226 leukemia was above 100 µM in each case.
Regarding `COc1cc(C(=O)C/C(CCCC(=O)Nc2ccccc2[N+](=O)[O-])=N/NC(=O)c2cc3ccccc3cc2O)ccc1O`, the TGI was above 100 µM with SF-295 CNS; above 100 µM in the assay with IGROV1 ovarian; above 100 µM in the assay with K-562 leukemia; above 100 µM in the assay with HT29 colon; 51.3 µM in the assay with HL-60(TB) leukemia; 53.2 µM with UACC-62 melanoma. Besides, the TGI in the assay with OVCAR-4 ovarian and in the assay on RPMI-8226 leukemia was above 100 µM each time.
As to `CCN(CC)c1ccc(C(=O)c2ccccc2C(=O)O)c(O)c1`, the TGI with SF-295 CNS, in the assay on IGROV1 ovarian, with K-562 leukemia, in the assay on HT29 colon, in the assay on HL-60(TB) leukemia and in the assay on UACC-62 melanoma was above 100 µM in each case. Further, the TGI in the assay on OVCAR-4 ovarian and in the assay on RPMI-8226 leukemia was above 100 µM throughout.
Turning to `Cc1cc(N(CCC#N)CCC#N)ccc1N=Nc1cccc(C(=O)O)c1`, the TGI in the assay with SF-295 CNS, with IGROV1 ovarian, in the assay with K-562 leukemia, in the assay with HT29 colon, in the assay with HL-60(TB) leukemia and in the assay with UACC-62 melanoma was above 100 µM throughout. In addition, the TGI in the assay with OVCAR-4 ovarian was above 100 µM.
Regarding `O=C(O)/C=C\C(=O)N1C/C(=C\c2ccccc2Cl)C(=O)/C(=C/c2ccccc2Cl)C1`, the GI50 is 4.4 µM in the assay with SF-295 CNS; 3.66 µM in the assay with IGROV1 ovarian; 3.34 µM in the assay with MDA-MB-435; 2.44 µM with K-562 leukemia; 3.37 µM in the assay on HL-60(TB) leukemia; 1.88 µM in the assay with UACC-62 melanoma. The GI50 with OVCAR-4 ovarian was 3.37 µM; with RPMI-8226 leukemia, 1.35 µM. For the same compound, the TGI in the assay on SF-295 CNS was 16.5 µM; with IGROV1 ovarian it was 11.2 µM; with MDA-MB-435 it was 13.6 µM; in the assay on K-562 leukemia, 82 µM; in the assay on HL-60(TB) leukemia, 11.8 µM; in the assay on UACC-62 melanoma, 3.97 µM. The figures for the TGI in the assay with OVCAR-4 ovarian and in the assay on RPMI-8226 leukemia were 13.6 µM and 10.3 µM, respectively.
`O=C(N/C(=C\c1ccc2c(c1)OCO2)c1nc2ccccc2[nH]1)c1ccccc1`: the TGI in the assay with SF-295 CNS is above 100 µM; with IGROV1 ovarian, 77.3 µM; in the assay with K-562 leukemia, above 79.6 µM; in the assay with HL-60(TB) leukemia it was 37.4 µM; in the assay on UACC-62 melanoma, 56.9 µM; with OVCAR-4 ovarian, 69.4 µM. The TGI with RPMI-8226 leukemia came to 83.9 µM.
Regarding `Cc1c(C(=O)C/C(=N\O)C(=O)Nc2cc(Cl)c(Cl)cc2Cl)[n+](=O)c2ccccc2n1[O-]`, the TGI is 53.5 µM with SF-295 CNS; 20.9 µM with IGROV1 ovarian; above 100 µM in the assay on K-562 leukemia; above 100 µM in the assay on HT29 colon; above 100 µM in the assay with HL-60(TB) leukemia; 16.5 µM in the assay on UACC-62 melanoma. The figures for the TGI in the assay with OVCAR-4 ovarian and in the assay on RPMI-8226 leukemia were 39.4 µM and 38.4 µM, respectively.
For `CCCCCCCCN=C(N)c1ccc(N2CCN(c3ccc(C(N)=NCCCCCCCC)cc3)CC2)cc1`, the GI50 was 1.1 µM with SF-295 CNS; 1.62 µM with IGROV1 ovarian; 1.25 µM in the assay on MDA-MB-435; 1.46 µM in the assay on K-562 leukemia; 1.61 µM in the assay on HT29 colon; 1.17 µM with HL-60(TB) leukemia. The GI50 was 1.92 µM in the assay on UACC-62 melanoma and 2.35 µM in the assay on OVCAR-4 ovarian. Further, the TGI in the assay on SF-295 CNS was 2.79 µM; with IGROV1 ovarian it was above 50 µM; in the assay with MDA-MB-435, 3.23 µM; with K-562 leukemia, above 50 µM; with HT29 colon, 13.6 µM; in the assay on HL-60(TB) leukemia it was 4.66 µM. Also, the results for the TGI with UACC-62 melanoma and with OVCAR-4 ovarian were 8.44 µM and 14.9 µM, respectively.
As for `CC1=C(C)C(=O)c2c(cc3ccccn23)C1=O`, the TGI is 31.8 µM with SF-295 CNS; 54.5 µM with IGROV1 ovarian; above 100 µM in the assay on K-562 leukemia; 36.6 µM in the assay on HT29 colon; 43.2 µM with HL-60(TB) leukemia; 35.4 µM in the assay on UACC-62 melanoma. The TGI is above 100 µM in the assay on OVCAR-4 ovarian and 65.9 µM in the assay with RPMI-8226 leukemia.
With `CC1=Nc2ccccc2S/C1=C(/C)NNC(=O)C(N)=O`, the TGI in the assay on SF-295 CNS, in the assay with IGROV1 ovarian, in the assay on K-562 leukemia, in the assay with HT29 colon, with HL-60(TB) leukemia and with UACC-62 melanoma was above 100 µM in each case. For the same compound, the TGI in the assay with OVCAR-4 ovarian and in the assay on RPMI-8226 leukemia was above 100 µM each time.
As for `COC(=O)C(=O)C1(CCC(C)=O)c2ccccc2-c2c(C)ccc(C)c21` (centres undefined), the TGI in the assay on SF-295 CNS was above 100 µM; with IGROV1 ovarian, above 100 µM; in the assay on K-562 leukemia, above 100 µM; with HT29 colon, above 100 µM; in the assay on HL-60(TB) leukemia, 32.1 µM; in the assay with UACC-62 melanoma, above 100 µM. In addition, the TGI in the assay with OVCAR-4 ovarian was above 100 µM; in the assay on RPMI-8226 leukemia it was 78.6 µM.
As for `COc1cc(/C=C/c2cc(O)c3cc(C(C)=O)c(=O)oc3c2)cc2c1O[C@]1(C)CC[C@@H](O)C(C)(C)[C@H]1C2`, the GI50 in the assay on IGROV1 ovarian was above 25.9 µM; in the assay on MDA-MB-435, above 20.1 µM; with HT29 colon, above 24.9 µM; in the assay with HL-60(TB) leukemia, 2.12 µM; with OVCAR-4 ovarian it was above 43 µM. Further, the TGI was above 66.1 µM in the assay on IGROV1 ovarian; above 45.7 µM in the assay on MDA-MB-435; above 100 µM with K-562 leukemia; above 62.2 µM in the assay with HT29 colon; 10.7 µM in the assay with HL-60(TB) leukemia; above 27.8 µM with UACC-62 melanoma. The TGI in the assay on OVCAR-4 ovarian was above 74.3 µM.
As to `Cc1ccc(N=Cc2ccc3c(c2)OCO3)cc1C`, the TGI with SF-295 CNS, with IGROV1 ovarian, in the assay on HT29 colon, in the assay with HL-60(TB) leukemia, with UACC-62 melanoma and with RPMI-8226 leukemia was above 100 µM in each case.
In the case of `COc1cc(OC(C)=O)cc2c(OC(C)=O)ccc(OC(C)=O)c12`, the TGI in the assay on SF-295 CNS, in the assay on IGROV1 ovarian, in the assay on K-562 leukemia, in the assay with HT29 colon, with HL-60(TB) leukemia and in the assay on UACC-62 melanoma was above 100 µM in each case. In addition, the TGI in the assay with OVCAR-4 ovarian and in the assay on RPMI-8226 leukemia was above 100 µM throughout.
